Several values for one entry are separate records, joined by “and”; a condition that tells them apart may be missing. Equal values may be shown once. Read-outs that look alike come from different tables or passages of the source. Where no end group is shown, it is not given here.

In data set [1] the test system is Shigella. As to the kind of experiment: Anti-Shigella activity in stool extracts of treated rabbits. It is filed as in vivo, rabbit. The settings on record: compared to infected or healthy rabbits. An excerpt: (§1) Anti-Shigella activity in stool extracts from PBA, TBG and NaB-treated rabbits was higher compared to infected or healthy rabbits.
Data set [2] relates to Shigella. As to the kind of experiment: Shigellosis rabbit model, clinical illness and recovery. The settings on record: for clinical illness: Shigella infected rabbits. The format is in vivo. The procedure: as §1
(§2) In a shigellosis model a 0.14 mmol/dose lead to 2 out of 3 rabbits recovering from shigellosis. Assuming a blood volume of 121 ml in the 2 kg rabbit the maximum concentration of NaB in the blood after IV administration would have been 1.2 mM.

A short description of data set [3]: Maximum concentration of NaB in blood after IV administration (assumed blood volume). The format is in vivo. The settings on record: 0.14 mmol/dose; assuming blood volume of 121 ml in the 2 kg rabbit. The procedure:
as §2

Data set [4] deals with Shigella dysenteriae type 1 strain. The settings on record: cited from earlier work.
Data set [5] in a line: Butyrate concentration in rabbit serum after oral NaB. The format is in vivo. To be noted: oral dosing of 15.6 mg to each rabbit, read-out: maximum concentration of butyrate in the blood (Cmax). The method, then:
FIG. 2. Butyrate concentration in healthy rabbit serum after oral treatment with NaB. Serum was collected from healthy rabbits at different time points after oral treatment with a single 0.14 mmol dose of NaB (15.6 mg). Four analyses (duplicate analyses of two samples) of serum from a NaB treated rabbit are shown, where the concentrations are calculated from two separate standard curves (one for each duplicate). NaB: Sodium butyrate.
The maximum concentration of butyrate in the blood is about 8 μM (Cmax) after oral dosing of 15.6 mg of butyrate to each rabbit.

Data set [6] has as its system CAP-18. Nature of the data set: CAP-18 gene expression in tissue specimens of Shigella-infected rabbits. The format is in vivo, rabbit. On the set-up: scale not given here. The settings on record: treated Shigella-infected rabbits, n = 5, median.
In data set [7] the test system is CAP-18. As to the kind of experiment: CAP-18 immunoreactivity in epithelial lining of organs (immunostaining, ACIA score). The format is in vivo, rabbit. To be noted: for CAP-18 peptide in the mucosal epithelia: Shigella infected rabbits, lung, trachea, rectum and colon; for CAP-18 in the organs of healthy rabbits: oral (FIG. 1B); for CAP-18 (protein) expression: oral, shigellosis infected rabbit, rectum, distal colon, kidney, lung and trachea relative to untreated infected rabbits (FIG. 1A). An excerpt: FIG. 1. CAP-18 immunoreactivity in the epithelial lining of different organs in (A) Healthy rabbits, Shigella-infected rabbits and infected rabbits treated with NaB, TBG or PBA (B) healthy rabbits treated with NaB, TBG or PBA. Quantification of immunoreactive area relative to the total cell area of the tissue section was done by a computerized image analysis technique, and the results are expressed as ACIA score, i.e., the total positively stained area×total mean intensity (1-256 levels/per pixel) of the positive area divided by total cell area. One-way ANOVA was used in comparing data between healthy and infected/infected treated rabbits, between infected and infected treated rabbits, and between healthy and healthy-treated rabbits. The differences were significant when P<0.05; ‡ significant when comparing with healthy, * significant when comparing with infected.

Another data set concerns Shigella flexneri strain. To be noted: cited from earlier work.
Data set [8] has as its system Pseudomonas aeruginosa (strain PA01). Nature of the data set: Visual inspection of VA10 cell cultures infected with Pseudomonas aeruginosa. The format is cell-based. The settings on record: VA10 cells induced 48 h with 20 nM vitamin D, 4 mM PBA or both; 24 hrs after infection; control wells dense culture of bacteria. The procedure:
FIG. 7. Visual assessment of survival of VA10 cells in the presence of low infectivity Pseudomonas aeruginosa 0-1 bacteria (PAO1). After cultivating for 6 days the cells were stimulated for 48 h with 4-PBA, VitD, and 4-PBA+VitD. Subsequently the cells were stimulated for 24 h with 10 MOI PAO1 and inspected under the microscope.
VA10 cells were grown in BEGM medium (Bronchial Epithelial Growth Medium). VA10 cells were induced by adding PBA and/or vitamin D to the medium. Untreated control was included. After 48 h induction the culture was infected with low dose of Pseudomonas aeruginosa (strain PA01) along with freeze-thaw-treated bacteria. After 24 hrs of cultivation the culture wells were visually inspected. Dense culture of bacteria was found in control wells, but the wells of cells that had been induced with 20 nM vitamin D, 4 mM PBA or combination of 20 nM vitamin D and 4 mM PBA contained clear medium (FIG. 7).

The conditions of data set [9]: after the administration of a 5 g dose; cited from earlier work.
A further data set deals with DEFB-1. Nature of the data set: DEFB-1 mRNA expression in VA10 cells by rtPCR. The format is cell-based, human. To be noted: first 4-PBA, subsequently low-dose inactivated Pseudomonas bacteria. The procedure: FIG. 9. DEFB-1 expression in VA10 cells after 48 h stimulation with 4 mM 4-PBA, 20 nM VitD, and […]+20 nM VitD and subsequent 24 h stimulation with low infectivity freeze-thawed PAO1 suspension (PAO1 has been frozen in DMEM at −25° C. for a week. The majority of bacteria have been inactivated.)
In addition to the visual inspection the degree of induction of CAMP mRNA, that codes for LL-37, and DEFB-1, that codes for […], was determined by rtPCR.

The subject of data set [10] is E. coli strain E2348/69 (EPEC). It is filed as cell-based. The settings on record: strain E2348/69 (EPEC, 0.90 μM). The procedure:
To assess bactericidal activity of synthetic CAP-18 and PBA, an in vitro killing experiment was carried out with E. coli strain E2348/69 (EPEC). […] Note that dosing in Phase II TB study is 1 g daily with 5000 IU vitamin D.

Where [11] appears, read: LP (lamina propria) distal colon.
The mark [12] stands for this setting: SE (surface epithelium) distal colon.

Regarding `CC[C@H](C)[C@H](NC(=O)[C@H](CCCCN)NC(=O)[C@H](CCC(=O)O)NC(=O)[C@H](CCCCN)NC(=O)[C@H](CO)NC(=O)[C@H](CCCCN)NC(=O)[C@H](CCCNC(=N)N)NC(=O)[C@H](Cc1ccccc1)NC(=O)[C@H](Cc1ccccc1)NC(=O)[C@H](CC(=O)O)NC(=O)CNC(=O)[C@H](CC(C)C)NC(=O)[C@@H](N)CC(C)C)C(=O)NCC(=O)N[C@@H](CCCCN)C(=O)N[C@@H](CCC(=O)O)C(=O)N[C@@H](Cc1ccccc1)C(=O)N[C@@H](CCCCN)C(=O)N[C@@H](CCCNC(=N)N)C(=O)N[C@H](C(=O)N[C@H](C(=O)N[C@@H](CCC(N)=O)C(=O)N[C@@H](CCCNC(=N)N)C(=O)N[C@H](C(=O)N[C@@H](CCCCN)C(=O)N[C@@H](CC(=O)O)C(=O)N[C@@H](Cc1ccccc1)C(=O)N[C@@H](CC(C)C)C(=O)N[C@@H](CCCNC(=N)N)C(=O)N[C@@H](CC(N)=O)C(=O)N[C@@H](CC(C)C)C(=O)N[C@H](C(=O)N1CCC[C@H]1C(=O)N[C@@H](CCCNC(=N)N)C(=O)N[C@H](C(=O)N[C@@H](CCC(=O)O)C(=O)N[C@@H](CO)C(=O)O)[C@@H](C)O)C(C)C)[C@@H](C)CC)C(C)C)[C@@H](C)CC` [LL-37], the Zone diameter in the data set with Moraxella catarrhalis (10 uM) is on record as 5.4 mm; in the data set with Moraxella catarrhalis (25 uM), 6.3 mm; in the data set with Moraxella catarrhalis (50 uM) it was 7.45 mm; in the data set on Moraxella catarrhalis (100 uM), 8.9 mm; in the data set on Haemophilus influenzae (50 uM) it was 0 mm; in the data set with Haemophilus influenzae (100 uM) it was 7.75 mm. In the data set with Haemophilus influenzae (300 uM), this molecule yielded a Zone diameter of 13.3 mm.
As to `CCCC(=O)O` [NaB, sodium butyrate], in the data set on Shigella [1], the “Anti-Shigella activity in stool extracts” value is recorded as “higher”. Also, the “rabbits recovering from shigellosis” value in the data set on Shigella [2] (0.14 mmol/dose, intravenous) is recorded as 2 out of 3. In addition, the clinical illness entry in the data set on Shigella [2] is recorded as “reduced clinical illness”. Also, the “maximum concentration in the blood after IV administration” value in data set [3] was 1.2 mM. The “concentration for maximum killing” value is 400 mM and 44 mg/ml in [4]; 400 mM and 44 mg/ml in the data set on Shigella flexneri strain. Moreover, in [5], the Cmax was roughly 8 µM. For the same molecule, the CAP-18 gene expression in the data set on CAP-18 [6] (Kidney) worked out at 17.4; in the data set on CAP-18 [6] (setting [11]), 0.55; in the data set with CAP-18 [6] (LP (lamina propria) rectum) it was 0.1; in the data set with CAP-18 [6] (Lungs), 12.6; in the data set on CAP-18 [6] (setting [12]), 5.0; in the data set with CAP-18 [6] (SE (surface epithelium) rectum) it was 0.3. Besides, the values for the CAP-18 gene expression in the data set on CAP-18 [6] (Trachea) and in the data set on CAP-18 [6] (U. tract) were 0.71 and 0.19, respectively. Moreover, in the data set on CAP-18 [7], the “CAP-18 peptide in the mucosal epithelia” value is reported as “up-regulation”. Also, the CAP-18 level with CAP-18 [7] (colonic SE, intravenous injection into infected rabbits) was found to be 5.6±1.8 ACIA score; with CAP-18 [7] (colonic SE, orally treated infected rabbits) it was 7.4±0.5 ACIA score; in the data set with CAP-18 [7] (rectal SE, intravenous injection into infected rabbits), 6.5±1.8 ACIA score; in the data set with CAP-18 [7] (rectal SE, orally treated infected rabbits), 8.13±1 ACIA score. The “CAP-18 in the organs of healthy rabbits” value with CAP-18 [7] was “do not cause increase”. In addition, in the data set with CAP-18 [7], the “CAP-18 (protein) expression” value is “systemic stimulation”.
On to `O=C(O)CCCc1ccccc1` [PBA, sodium 4-phenylbutyrate, reference compound], for which, in the data set with Shigella [1], the “Anti-Shigella activity in stool extracts” value is given as “higher”. The clinical illness entry with Shigella [2] is on record as “reduced clinical illness”. In addition, in data set [8], the “visual inspection of culture wells” value is “clear medium”. Further, the CAP-18 gene expression with CAP-18 [6] (Kidney) was determined as 3.9; in the data set with CAP-18 [6] (setting [11]), 0.53; in the data set on CAP-18 [6] (LP (lamina propria) rectum), 0.41; in the data set with CAP-18 [6] (Lungs) it was 5.3; in the data set on CAP-18 [6] (setting [12]), 2.4; in the data set with CAP-18 [6] (SE (surface epithelium) rectum), 0.18. Moreover, the CAP-18 gene expression in the data set with CAP-18 [6] (Trachea) amounted to 1.1; with CAP-18 [6] (U. tract) it was 0.13. Besides, in the data set on CAP-18 [7], the “CAP-18 peptide in the mucosal epithelia” value is “up-regulation”. Moreover, the “CAP-18 in the organs of healthy rabbits” value in the data set on CAP-18 [7] is reported as “do not cause increase”. Also, the “CAP-18 (protein) expression” value in the data set on CAP-18 [7] is “systemic stimulation”. The Cmax in [9] was 1200 µM. Further, in the data set with DEFB-1, the DEFB-1 expression result is “up to six-fold”.
As for `CCCC(=O)OCC(COC(=O)CCC)OC(=O)CCC` [TBG, glyceryl tributyrate], the “Anti-Shigella activity in stool extracts” value with Shigella [1] is “higher”. In addition, the clinical illness entry in the data set with Shigella [2] is “reduced clinical illness”. The CAP-18 gene expression in the data set on CAP-18 [6] (Kidney) stood at 2.7; in the data set on CAP-18 [6] (setting [11]), 0.43; with CAP-18 [6] (LP (lamina propria) rectum) it was 0.07; in the data set with CAP-18 [6] (Lungs), 6.4; in the data set with CAP-18 [6] (setting [12]), 2.8; in the data set on CAP-18 [6] (SE (surface epithelium) rectum), 0.4. The CAP-18 gene expression in the data set on CAP-18 [6] (Trachea) was 1.11; with CAP-18 [6] (U. tract), 0.25. Besides, the “CAP-18 peptide in the mucosal epithelia” value in the data set with CAP-18 [7] is given as “up-regulation”. The “CAP-18 peptide level in the kidney” value in the data set on CAP-18 [7] (non-infected rabbits (FIG. 1B)) is “increased levels”. Besides, the “CAP-18 (protein) expression” value in the data set with CAP-18 [7] is given as “systemic stimulation”.
In the case of “GLRKRLRKFRNKIKEKLKKIGQKIQGLLPKLAPRTDY [CAP-18]”, the “killing of EPEC” value in data set [10] is listed as 97-99%.
Consider vitamin D, for which the “visual inspection of culture wells” value in [8] is “clear medium”.

These data come from patent US20150258047A1, “Therapeutic Compounds” (AKTHELIA PHARMACEUTICALS, priority 2011, published 2015).
